Measured values reported in patent US4175081A, “5-Substituted thiadiazole ureas” (priority 1977, dated 1979).

Legend:
Experiment in all cases: Post-emergence herbicide test
Crabgrass (CG) = type: in vivo, Digitaria sanquinalis; conditions: Digitaria sanguinalis, post-emergence, 336 h; 4 lb/acre; two weeks after treatment
Experimental: Crabgrass (CG)--Digitaria sanquinalis
(§1) All crop and weed species were planted individually in 3' plastic pots containing potting soil. Four seeds each of corn, cotton, and snapbeans were seeded to a depth equal to the diameter of the seed. All other species were surface seeded and sprinkled with screened soil in an amount sufficient to cover the seed. Immediately after planting, all pots were watered by sub-irrigation in greenhouse trays. Pots for the pre-emergence phase were seeded one day before treatment.
(§2) Planting dates for the post-emergence phase were varied so that all seedlings would reach the desired stage of development simultaneously. The proper stage of seedling development for treatment in the post-emergence phase is as follows:
(§3) Spray hood constants required to deliver the above volume are as follows:
(§4) Formulations for spray applications were prepared in 50 ml volumes with the following three components: […]
(§5) Spray applications were made in a hood containing a removable belt and fixed spray nozzle. For passage through the spray hood, one pot of each specie (pre-emergence phase) was placed on the rear half of the flat. Treatments were removed to the greenhouse after spraying. Watering during the observation period was done only by sub-irrigation.
(§6) Two weeks after treatment, pre- and post-emergence injury or control was visually rated, and the results were as shown in the following tables. Pre-emergence data are provided in TABLE III and post-emergence data are provided in TABLE IV, for compounds having the formula illustrated in TABLE I. Correspondingly, pre-emergence and post-emergence data, respectively, are set forth in TABLES V AND VI, for compounds having the formula illustrated in TABLE II.

Johnson grass (JG) = type: in vivo, Sorgum helepense; conditions: Sorghum halepense, 336 h, 4 lb/acre, two weeks after treatment
Experimental: Johnson grass (JG)--Sorgum helepense
as §1, §2
(§7) Compounds were tested at rates of application equivalent to 8 lbs. of actual compound per acre in a spray volume of 38 gallons per acre. Spray hood constants required to deliver the above volume are as follows:
(§8) Formulations for spray applications were prepared in 50 ml volumes with the following three components:
(§9) Formulations for the 4 lbs/acre rate were prepared by adjusting the amount of active ingredient accordingly.
as §5, §6

Barnyard grass (BG) = type: in vivo; conditions: Echinochloa crus-galli, 336 h, 4 lb/acre, two weeks after treatment
Experimental: Barnyard grass (BG)--Echinochloa crus-galli
as §1, §2, §7, §8, §9, §5, §6

Amaranth pigweed (PW) = type: in vivo, Amaranthus retroflexus; conditions: 336 h, two weeks after treatment; for pest or weed control at 2241.7 g/ha: 2 lb/acre; for pest or weed control at 4483.4 g/ha: 4 lb/acre
Experimental: Amaranth pigweed (PW)--Amaranthus retroflexus
as §1, §2
(§10) Pigweed and turnips: 1 or 2 true leaves above visible cotyledons.
as §7, §8, §9, §5, §6

Turnip (TP) = type: in vivo, Brassica sp.; conditions: Brassica rapa, post-emergence, 336 h, two weeks after treatment; for pest or weed control at 2241.7 g/ha: 2 lb/acre; for pest or weed control at 4483.4 g/ha: 4 lb/acre
Experimental: Turnip (TP)--Brassica sp.
as §1, §2, §10, §3, §4, §5, §6

Cotton (CT) = type: in vivo, Gossypium hirsutum var. DPL smooth leaf; conditions: Gossypium hirsutum, post-emergence, 336 h; 4 lb/acre; two weeks after treatment
Experimental: Cotton (CT)--Gossypium hirsutum var. DPL smooth leaf
as §1, §2
Cotton: first true leaf 1' in length; expanded cotyledons.
as §3, §8, §9, §5, §6

Corn (CN) = type: in vivo; conditions: Zea mays, 336 h, 4 lb/acre, two weeks after treatment
Experimental: as §1, §2, §7, §8, §9, §5, §6

Bean (BN) = type: in vivo, Phaseolus vulgaris var. Black Valentine; conditions: Phaseolus vulgaris, post-emergence, 336 h; 4 lb/acre; two weeks after treatment
Experimental: Bean (BN)--Phaseolus vulgaris var. Black Valentine
as §1, §2
Beans: primary leaves expanded, growing point at primary leaf nodes.
as §3, §8, §9, §5, §6

| SMILES | pest or weed control at 4483.4 g/ha (Crabgrass (CG)) [%] | pest or weed control at 4483.4 g/ha (Johnson grass (JG)) [%] | pest or weed control at 4483.4 g/ha (Barnyard grass (BG)) [%] | pest or weed control at 2241.7 g/ha (Amaranth pigweed (PW)) [%] | pest or weed control at 4483.4 g/ha (Amaranth pigweed (PW)) [%] | pest or weed control at 2241.7 g/ha (Turnip (TP)) [%] | pest or weed control at 4483.4 g/ha (Turnip (TP)) [%] | pest or weed control at 4483.4 g/ha (Cotton (CT)) [%] | pest or weed control at 4483.4 g/ha (Corn (CN)) [%] | pest or weed control at 4483.4 g/ha (Bean (BN)) [%] |
| --- | --- | --- | --- | --- | --- | --- | --- | --- | --- | --- |
| CCC(C)=CCSc1nnc(NC(=O)NC)s1 [Example 50] | 50 | 30 | 20 | 90 | 90 | 60 | 80 | 80 | 30 | 100 |
| CNC(=O)Nc1nnc(SCCC(C)C)s1 [Example 51] | 60 | 40 | 70 | 90 | 90 | 80 | 90 | 100 | 50 | 100 |
| CNC(=O)Nc1nnc(SCCC#N)s1 [Example 52] | 70 | 20 | 20 |  | 80 |  | 80 | 100 | 100 | 100 |
| CNC(=O)Nc1nnc(SCCc2ccccc2)s1 [Example 53] | 60 | 30 | 20 | 90 | 90 | 70 | 90 | 100 | 100 | 100 |
| CNC(=O)Nc1nnc(SCC(C)=O)s1 [Example 54] | 50 | 30 | 30 | 60 | 90 | 60 | 80 | 90 | 30 | 100 |
